In US10195044B2, “Intervertebral disc implant” (Sinai Health System, priority 2013, dated 2019):

Test system: sheep PDCs
Test: ALP activity of predifferentiated chondrocytes cultured on CPP substrates

N[C@@H](Cc1cc(I)c(Oc2ccc(O)c(I)c2)c(I)c1)C(=O)O [T3, triiodothyronine]
ALP activity (3 nM T3, absence of dexamethasone, 1 week on CPP substrates): maximized
ALP activity level over 2 week culture (continuous 3 nM T3 treatment, maintained up to day 14): significantly increased by day 4
